Consider six compounds from patent US20100298325A1, “PYRIDINE DERIVATIVES FOR THE TREATMENT OF AMYLOID-RELATED DISEASES” (SENEXIS LIMITED, priority 2007, published 2010).

In one experiment the test system is SH SY5Y cells. In words: Cell viability assay for amyloid toxicity using MTT reduction. The experiment is classed as cell-based. Conditions: 10 μM Aβ(1-42), 24 h incubation, MTT reduction as measure of cell viability, read-out: IC50 protecting SH SY5Y cells from a toxic insult of 10 μM Aβ(1-42). Here is the method: Aβ(1-42) was prepared for amyloid aggregation and toxicity assays by dissolving Aβ(1-42) HCl salt in hexafluoroisopropanol (HFIP), with brief sonication and vortexing. This solution of the Aβ(1-42) peptide in HFIP was stored at 4° C. @ 2 mM. When required, an aliquot of this stock solution was freeze-dried and dissolved in DMSO to 200 times the required final assay concentration (e.g. 2 mM for a final assay concentration of 10 μM).
A 20 mM stock solution of each test compound was prepared in DMSO, and aliquots of these solutions were used to prepare further stock solutions of each test compound in DMSO, ranging in concentration from 3 μM up to 10 mM. These stock solutions were prepared for use as and when required and stored at −20° C. (maximum of 3 freeze-thaw cycles). The 20 mM parent stock solutions were stored frozen at −20° C.
The activity of compounds in protecting SH SY5Y cells from a toxic insult of 10 μM Aβ(1-42) was assessed by using inhibition of MIT reduction as a measure of cell viability. An aliquot (3 μl) of test compound [various concentrations] in DMSO is added to 294 μl of Opti-Mem (containing 2% FBS, 1% Pen/Strep, 1% L-Gln) {daughter plate}. The well is mixed thoroughly. Then an aliquot (3 μl) of Aβ(1-42) [2 mM] is added to the daughter plate wells and again mixed thoroughly. 50 μl is then aspirated and dispensed into wells containing 50 μl media+SH SY5Ycells (cells are also plated in Opti-Mem, at ˜30,000 cells/well/50 μl). Final concentrations of compound on cells range from [50 μM] to [˜15 nM] with a final concentration of Aβ(1-42) of [10 μM].
Cell plates are incubated for 24 h and then the MTT assay (Shearman, 1999). is performed. Briefly, 15 μl of MTT (3-(4,5-dimethylthiazol-2-yl)-2,5-diphenyl-tetrazolium bromide) dye (from Promega) added to each well and the plates incubated in 5% CO2 at 37° C. for 4 hours. 100 μl Stop/solubilsation solution (from Promega) was added to each well and the plates were left overnight in humidified box at room temperature. The plate was shaken and the absorbance was recorded at both 570 nm and 650 nm. ΔA values were calculated by subtracting absorbance at 650 nm from absorbance at 570 nm, to reduce non-specific background absorbance. ΔA values from equivalent experiments were averaged and % cell viability was determined as follows:
Live cell controls: 1% DMSO in Opti-Mem
Dead cell controls: 0.1% Triton X-100 added to cells
Activity of Compounds in Protecting SH SY5Y Cells from a Toxic Insult of 10 μM Aβ(1-42) Using Inhibition of MTT Reduction as a Measure of Cell Viability
On the technique in general: Tetrazolium dyes change colour on reduction, which living cells bring about.

In the next experiment the target is T1, Aβ(1-42) (Homo sapiens, UniProt P05067).
T1 construct: dissolving Aβ(1-42) HCl salt in hexafluoroisopropanol (HFIP)
In words: Thioflavin-T fluorimetric assay of Aβ(1-42) aggregation. The experiment is classed as biochemical. As to conditions: 10 μM Aβ(1-42); thioflavin-T fluorescence; read-out: IC50 inhibiting 10 μM Aβ(1-42) aggregation. The procedure:
Aβ(1-42) was prepared for amyloid aggregation and toxicity assays by dissolving Aβ(1-42) HCl salt in hexafluoroisopropanol (HFIP), with brief sonication and vortexing. This solution of the Aβ(1-42) peptide in HFIP was stored at 4° C. @ 2 mM. When required, an aliquot of this stock solution was freeze-dried and dissolved in DMSO to 200 times the required final assay concentration (e.g. 2 mM for a final assay concentration of 10 μM). A 20 mM stock solution of each test compound was prepared in DMSO, and aliquots of these solutions were used to prepare further stock solutions of each test compound in DMSO, ranging in concentration from 3 μM up to 10 mM. These stock solutions were prepared for use as and when required and stored at −20° C. (maximum of 3 freeze-thaw cycles). The 20 mM parent stock solutions were stored frozen at −20° C. The daughter plate is sealed with silver seal and incubated at 37° C. for 24 and 48 hours for the Thioflavin T assay (LeVine and Scholten 1999). The activity of compounds in inhibiting 10 μM Aβ(1-42) aggregation was assessed by using a thioflavin-T fluorimetric assay. At each timepoint, a 50 or 100 μl aliquot is taken from each well of the daughter plate and dispensed into a black 96 well plate. Equal volume (50 or 100 μl) Thioflavin T [40 μM] (in Glycine buffer [50 mM]-NaOH pH 8.5) is added to each well. The plate was shaken and fluorescence was recorded using the top reader setting (10×1 msec), using excitation and emission filters of 440 (±15) and 485 (±10) nm, respectively. Fluorescence readings from equivalent experiments were averaged and % amyloid formation was determined as follows: Activity of Compounds in Inhibiting 10 μM Aβ(1-42) Aggregation Using Thioflavin-T Fluorimetric Assay

Where two headings read alike, the source gives them in different places.

T1 sequence (P05067 672-713 limits assumed): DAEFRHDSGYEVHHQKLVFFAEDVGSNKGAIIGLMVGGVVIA

As to `COc1cc(N(C)c2ccc(Oc3cccc(N(C)C)c3)cn2)ccc1F` [Example 26, [5-(3-Dimethylaminophenoxy)-pyridin-2-yl]-(4-fluoro-3-methoxy-phenyl)methylamine], in the experiment on SH SY5Y cells (Homo sapiens, SH-SY5Y), the IC50 was determined as 22 µM.

Regarding `Oc1cccc(Nc2ccc(Oc3ccc(F)cc3)cn2)c1` [Example 1, 3-[5-(4-Fluorophenoxy)pyridin-2-ylamino]-phenol], the IC50 turned out to be 16 µM with SH SY5Y cells (Homo sapiens, SH-SY5Y) and 5 µM at Aβ(1-42).

Regarding `Oc1cccc(Nc2ccc(Nc3cccc(O)c3)nn2)c1` [RS-0406, reference compound], the concentration for half-maximal inhibition (IC50) with SH SY5Y cells is 40 µM.

For the compound `COc1cc(Nc2ccc(Oc3cccc(N4CCOCC4)c3)cn2)ccc1F` [Example 27], the IC50 amounted to 8 µM in the experiment on SH SY5Y cells (Homo sapiens, SH-SY5Y) and 11 µM on Aβ(1-42).

For the compound `COc1cc(Nc2ccc(Oc3cccc(N(C)C)c3)cn2)ccc1F` [Example 17, [5-(3-Dimethylaminophenoxy)-pyridin-2-yl]-(4-fluoro-3-methoxy-phenyl)amine], the IC50 in the experiment with SH SY5Y cells (Homo sapiens, SH-SY5Y) was determined as 16 µM; on Aβ(1-42) it was 9 µM.

Regarding `Oc1cccc(Nc2ccc(Oc3cccc(N4CCOCC4)c3)cn2)c1` [Example 31], the half-maximal inhibitory concentration (IC50) on Aβ(1-42) came out at 15 µM.

For orientation: IC50 means the concentration needed to halve the response being measured.
